Tests used:
[1] = biological target: T1, CAIX (Homo sapiens, UniProt Q16790); experiment: Stopped-flow CO2 hydration, CAIX activity before and after dialysis; assay type: biochemical; conditions: for CAIX catalytic activity after 32 hours of dialysis: […] CAIX incubated 2 h with 15 μM AV19-37 or 100 μM AV19-36, dialyzed in Tris buffer pH 7
Procedure: A—CAIX incubated for 2 hours with compounds and the CO2 hydration was measured. B—CAIX was incubated for 2 hours with the compound and then the complex was dialyzed for 32 hours in Tris buffer (pH 7.0). Black curves represent CAIX catalyzed CO2 hydration reaction. Grey curves are spontaneous CO2 hydration without the CA enzyme.
CO2 hydration velocities were measured by recording absorbance of phenol red (final concentration 50 μM) at 557 nm by using Applied Photophysics SX.18 MV-R stopped-flow spectrometer.

[2] = biological target: T1, CAIX; experiment: Isothermal titration calorimetry (ITC) binding to CAIX; conditions: pH 7.0, TRIS chloride buffer, 37° C., FIG. 1D
Procedure: A—Raw data of CAIX unfolding in the presence of different compound concentrations. B—dependence of CAIX melting temperature Tm on ligand concentration. […] C—raw ITC curve at pH 7.0, TRIS chloride buffer, at 37° C. D—Integrated ITC curve.

[3] = biological target: CAIII (Homo sapiens, UniProt P07451); experiment: Mass spectrometry (Q-TOF) of covalent modification of CAIII; assay type: binding; conditions: CAIII in the presence of ligand
Chain of CAIII (P07451 whole entry): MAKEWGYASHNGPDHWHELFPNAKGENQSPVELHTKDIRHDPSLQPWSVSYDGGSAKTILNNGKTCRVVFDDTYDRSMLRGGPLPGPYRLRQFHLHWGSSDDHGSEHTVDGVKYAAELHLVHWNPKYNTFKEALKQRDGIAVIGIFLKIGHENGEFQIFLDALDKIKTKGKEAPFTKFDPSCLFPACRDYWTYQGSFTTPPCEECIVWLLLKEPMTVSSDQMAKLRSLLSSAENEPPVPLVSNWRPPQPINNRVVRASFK

SMILES | CAIX catalytic activity after 32 hours of dialysis [1] | compound binding stoichiometry [2] | CAIX catalytic activity after 2 hours of incubation with compound ([1]; […] CAIX, 15 μM compound, CO2 hydration, 25° C., pH 7.5) | covalent modification by MS [3]
CC(=O)OCCSc1c(F)c(F)c(S(N)(=O)=O)c(F)c1F [AV19-36, 2-((2,3,5,6-tetrafluoro-4-sulfamoylphenyl)thio)ethyl acetate] | partially restored its catalytic activity |  |  | 
CC(=O)OCCS(=O)(=O)c1c(F)c(F)c(S(N)(=O)=O)c(F)c1NC1CCCCCCC1 [AV19-37, 2-((2-(cyclooctylamino)-3,5,6-trifluoro-4-sulfamoylphenyl)sulfonyl)ethyl acetate] | not restored | ~1 | lost its catalytic activity | did not show a covalent modification

Reference: patent publication US20250066291A1, “TARGETED COVALENT INHIBITORS FOR CARBONIC ANHYDRASES” (VILNIUS UNIVERSITY, priority 2023, published 2025)
